According to patent US11945824B2, “Heterocyclic compounds as anti-viral agents” (priority 2020, dated 2024):

Legend:
[1] = system: Human RSV-A (“Long” strain); assay: RSV-A assay (CPE, ATPlite readout in Hep-2 cells); assay type: cell-based; conditions: human respiratory syncytial virus, 120 h; Hep-2 cells, MOI 0.1, 5-day incubation, ATPlite; read-out: Human RSV-A (“Long” strain) EC50
Source text: Hep-2 cells, (originally derived from tumors grown in irradiated-cortisonised weanling rats that had been injected with epidermoid carcinoma tissue from a person's larynx, but later found to be indistinguishable from HeLa cells by PCR DNA analysis), were used for the culturing of genotype A, “Long” strain RSV. Flasks were inoculated with RSV and viral stocks were collected once cytopathic effect (CPE) was greater than 90%. Viral stocks in 25% sucrose media were snap frozen using liquid nitrogen to increase viral stability. Viral stock titers were quantified by tissue culture infectious dose 50% (TCID50) using 8,000 cells per well and 3-fold viral dilutions across a 96-well plate, cultured for 4 days. Viral stock titers were also quantified by a plaque forming unit assay, as described elsewhere.
Following extensive parameter testing, the final assay is run as follows: Hep-2 cells are seeded into the inner 60 wells of a 96-well plate at 8,000 cells per well in a volume of 50 μL using Growth Media (DMEM without phenol red, 1% L-Glut, 1% Penn/Strep, 1% nonessential amino acids, 10% heat-inactivated FBS). 2-fold serial dilutions of control and test compounds are added to the wells in duplicate in a total volume of 25 μL. Viral stock is then added to the wells at a multiplicity of infection (MOI) of 0.1 in a volume of 25 μL, bringing the total volume of each well to 100 μL. The MOI is calculated using the PFU/mL, or TCID50 if unavailable. Each 96-well plate has a control column of 6 wells with cells and virus but no compound (negative control, max CPE), a column with cells but no compound or virus (positive control, minimum CPE), and a column with no cells or virus or compound (background plate/reagent control). The control wells with cells but no virus are given an additional 25 μL of growth media containing an equal quantity of sucrose as those wells receiving the viral stock in order to keep consistent in media and volume conditions. The outer wells of the plate are filled with 125 μL of moat media (DMEM, 1% Penn/Strep) to act as a thermal and evaporative moat around the test wells. Following a 5-day incubation period, the plates are read using ATPlite (50 uL added per well), which quantifies the amount of ATP (a measure of cell health) present in each well. Assay plates are read using the Envision luminometer. […] EC50 ranges are as follows: A<0.2 μM; B≥0.2 μM.

[2] = system: rHMPV-GFP (recombinant HMPV CAN97-83, MPV-GFP1); assay: HMPV antiviral assay (eGFP fluorescence in Vero E6 cells); assay type: cell-based; conditions: human metapneumovirus, Vero C1008, 120 h, read-out: rHMPV-GFP EC50
Protocol: Method for HMPV Antiviral Assay
HMPV antiviral activity was evaluated using a recombinant version of HMPV CAN97-83 engineered to contain the coding sequence for enhanced green fluorescence protein (eGFP) in the 3′ end of the virus genome (MPV-GFP1, ViraTree). Vero E6 cells (ATCC #CCL-7) were seeded at a density of 12,000 cells/100 μL/well into 96-well cell plates (VENDOR) one day prior to the assay. On the day of screening, the cell culture medium was aspirated from the wells and cells were washed twice with serum-free Eagle's Modified Essential Medium (EMEM, ATCC #) containing 1% penicillin-streptomycin (Invitrogen) (SF-EMEM). Cell washes were performed by dispensing 100 μL SF-EMEM per well and immediately aspirating the wash medium from the well. Following the second wash step, serum-free OptiMEM (Invitrogen, Cat No.) (SF-OptiMEM) containing 0.5 μg/mL TPCK-Trypsin (VENDOR) and 1% penicillin-streptomycin was added to the cells at 50 μL/well. Compounds were added into the 96-well plates using a JANUS automated liquid handling system (VENDOR). Compounds were initially diluted 1:50 into an intermediate 96-well plate containing SF-OptiMEM prior to transfer to the assay plate (25 μL/well). Each of the test compounds were tested in duplicate wells at final concentrations starting from 8 μM or 2 μM using ½ stepwise dilutions for a total of 8 points. Virus infection was performed by preparing a working stock of MPV-GFP1 at a multiplicity of infection (MOI) equal to 0.05/25 μL and aliquoting 25 μL of virus inoculum to the compound and positive control wells. SF-OptiMEM was added (25 μL/well) to the appropriate wells to serve as a virus-free negative control for the assay. The final DMSO concentration of all wells is 0.5%. Plates were incubated at 32° C., 5% CO2 for 5 days. After 5 days incubation, eGFP fluorescence intensity was measured at […] using a Spectramax i3X plate reader (VENDOR).
Percent viral inhibition was calculated using the following equation: y=[[…](XQ/XP)]×100 Where XQ is the fluorescence intensity measured in a well containing recombinant MPV-GFP1-infected, compound-treated cells and XP is the average fluorescence intensity measured in the wells containing untreated cells infected with recombinant virus. EC50 values were then calculated by non-linear regression using a four-parameter curve logistic equation. The curve fit model employed was XLFit Dose Response One Site Model 200: y=(A+(B/(1+((x/C)^D)))) Where A is the minimum y value, B is the maximum y value, C is the log EC50 value, and D is the slope factor. The EC50 for each compound is listed in Table 2 and EC50 ranges are as follows: A<0.2 μM; B≥0.2 μM.

| SMILES | EC50 [1] [nM] | EC50 [2] [nM] |
| --- | --- | --- |
| COc1cc(C(=O)NC[C@](O)(c2cc3c(c(-c4ccc(F)cc4)n2)OC[C@]3(C)n2cnnc2)C2CC2)cc2cccnc12 [Example 16, N-((S)-2-cyclopropyl-2-((R)-7-(4-fluorophenyl)-3-methyl-3-(4H-1,2,4-triazol-4-yl)-2,3-dihydrofuro[2,3-c]pyridin-5-yl)-2-hydroxyethyl)-8-methoxyquinoline-6-carboxamide] | < 200 | > 200 |
| COc1cc(C(=O)NC[C@](O)(c2cc3c(c(-c4ccc(F)cc4)n2)OC[C@]3(C)n2ccnn2)C2CC2)ccc1OC1CC1 [Example 17, 4-cyclopropoxy-N-((S)-2-cyclopropyl-2-((R)-7-(4-fluorophenyl)-3-methyl-3-(1H-1,2,3-triazol-1-yl)-2,3-dihydrofuro[2,3-c]pyridin-5-yl)-2-hydroxyethyl)-3-methoxybenzamide] | < 200 | < 200 |
| COc1cc(C(=O)NC[C@](O)(c2cc3c(c(-c4ccc(F)cc4)n2)OC[C@]3(C)c2cnn[nH]2)C(F)(F)F)cc2cccnc12 [Example 18, 8-methoxy-N-((S)-3,3,3-trifluoro-2-((S)-7-(4-fluorophenyl)-3-methyl-3-(1H-1,2,3-triazol-5-yl)-2,3-dihydrofuro[2,3-c]pyridin-5-yl)-2-hydroxypropyl)quinoline-6-carboxamide] | < 200 | > 200 |
| COc1cc(C(=O)NC[C@](O)(c2cc3c(c(-c4ccc(F)cc4)n2)OC[C@]3(C)c2ncc[nH]2)C(F)(F)F)cc2cccnc12 [Example 20, 8-methoxy-N-((S)-3,3,3-trifluoro-2-((S)-7-(4-fluorophenyl)-3-(1H-imidazol-2-yl)-3-methyl-2,3-dihydrofuro[2,3-c]pyridin-5-yl)-2-hydroxypropyl)quinoline-6-carboxamide] | < 200 | > 200 |
| C[C@]1(c2nc3ccccc3[nH]2)COc2c1cc([C@@](O)(CNC(=O)c1cc(OC3CC3)c3ncccc3c1)C(F)(F)F)nc2-c1ccc(F)cc1 [Example 21, N-((S)-2-((S)-3-(1H-benzo[d]imidazol-2-yl)-7-(4-fluorophenyl)-3-methyl-2,3-dihydrofuro[2,3-c]pyridin-5-yl)-3,3,3-trifluoro-2-hydroxypropyl)-8-cyclopropoxyquinoline-6-carboxamide] | < 200 | > 200 |
| C[C@]1(c2cc[nH]n2)COc2c1cc([C@@](O)(CNC(=O)c1cc(OC3CC3)c3ncccc3c1)C(F)(F)F)nc2-c1ccc(F)cc1 [Example 22, 8-cyclopropoxy-N-((S)-3,3,3-trifluoro-2-((S)-7-(4-fluorophenyl)-3-methyl-3-(1H-pyrazol-3-yl)-2,3-dihydrofuro[2,3-c]pyridin-5-yl)-2-hydroxypropyl)quinoline-6-carboxamide] | < 200 | > 200 |
| COc1cc(C(=O)NC[C@](O)(c2cc3c(c(-c4ccc(F)cc4)n2)OC[C@]3(C)Cc2ncc[nH]2)C(F)(F)F)cc2cccnc12 [Example 23, N-((S)-2-((R)-3-((1H-imidazol-2-yl)methyl)-7-(4-fluorophenyl)-3-methyl-2,3-dihydrofuro[2,3-c]pyridin-5-yl)-3,3,3-trifluoro-2-hydroxypropyl)-8-methoxyquinoline-6-carboxamide] | < 200 | < 200 |
